Paper PMC5218480 (PLoS ONE, 2017)

Tested on: MV-4-11 cells
Assay: Gene expression microarray analysis (Affymetrix PrimeView) and GSEA
Format: cell-based, human
Parameters: RFU PODN (11730768_x_at) / Fold change /veh PODN (11730768_x_at) / RFU LINC00158 (11744669_a_at) / Fold change /veh LINC00158 (11744669_a_at) / RFU DUSP10 (11751237_a_at) / Fold change /veh DUSP10 (11751237_a_at) / RFU ID3 (11757404_x_at) / Fold change /veh ID3 (11757404_x_at) / RFU PLEKHG5 (11737974_s_at) / Fold change /veh PLEKHG5 (11737974_s_at) / RFU LRRC4B (11730491_at) / Fold change /veh LRRC4B (11730491_at) / RFU GIMAP4 (11747438_a_at) / Fold change /veh GIMAP4 (11747438_a_at) / RFU KRT8 (11758183_x_at) / Fold change /veh KRT8 (11758183_x_at) / RFU CNN1 (11734310_a_at) / Fold change /veh CNN1 (11734310_a_at) / RFU VPS37D (11726825_at) / Fold change /veh VPS37D (11726825_at) / RFU C10orf10 (11716522_x_at) / Fold change /veh C10orf10 (11716522_x_at) / RFU KIR2DL2 /// KIR2DL4 /// KIR2DL5A /// KIR2DL5B /// KIR2DS1 /// KIR2DS2 /// KIR2DS3 /// KIR2DS4 /// KIR3DL3 /// KIR3DL3 /// KIR3DS1 (11738374_at) / Fold change /veh KIR2DL2 /// KIR2DL4 /// KIR2DL5A /// KIR2DL5B /// KIR2DS1 /// KIR2DS2 /// KIR2DS3 /// KIR2DS4 /// KIR3DL3 /// KIR3DL3 /// KIR3DS1 (11738374_at) / RFU C1QL1 (11718748_at) / Fold change /veh C1QL1 (11718748_at) / RFU TMPRSS4 (11747572_a_at) / Fold change /veh TMPRSS4 (11747572_a_at) / RFU HAMP (11756126_x_at) / Fold change /veh HAMP (11756126_x_at) / RFU RNFT2 (11725882_a_at) / Fold change /veh RNFT2 (11725882_a_at) / RFU NR4A2 (11747474_a_at) / Fold change /veh NR4A2 (11747474_a_at) / RFU ABCC12 (11746883_a_at) / Fold change /veh ABCC12 (11746883_a_at) / RFU TMEM136 (11760407_x_at) / Fold change /veh TMEM136 (11760407_x_at) / RFU CLDN22 /// WWC2 (11732394_at) / Fold change /veh CLDN22 /// WWC2 (11732394_at) / RFU HLA-DPB1 (11760878_x_at) / Fold change /veh HLA-DPB1 (11760878_x_at) / RFU SPINT1 (11716480_a_at) / Fold change /veh SPINT1 (11716480_a_at) / RFU GAP43 (11754022_s_at) / Fold change /veh GAP43 (11754022_s_at) / RFU A4GNT (11735810_at) / Fold change /veh A4GNT (11735810_at) / RFU PRB3 (11715151_x_at) / Fold change /veh PRB3 (11715151_x_at) / RFU TUBB4B (11761932_at) / Fold change /veh TUBB4B (11761932_at) / RFU CAPN14 (11732068_a_at) / Fold change /veh CAPN14 (11732068_a_at) / RFU TMCC2 (11721928_a_at) / Fold change /veh TMCC2 (11721928_a_at) / RFU IRGQ (11745062_a_at) / Fold change /veh IRGQ (11745062_a_at) / RFU FAM174B (11720279_a_at) / Fold change /veh FAM174B (11720279_a_at) / RFU TMPRSS4 (11748680_a_at) / Fold change /veh TMPRSS4 (11748680_a_at) / RFU FAM212B (11763350_a_at) / Fold change /veh FAM212B (11763350_a_at) / RFU PLEKHG5 (11743358_a_at) / Fold change /veh PLEKHG5 (11743358_a_at) / RFU ZSCAN30 (11745921_a_at) / Fold change /veh ZSCAN30 (11745921_a_at) / RFU CMKLR1 (11741424_a_at) / Fold change /veh CMKLR1 (11741424_a_at) / RFU LOC101060620 /// MAPK8IP1 (11723275_at) / Fold change /veh LOC101060620 /// MAPK8IP1 (11723275_at) / RFU SPTSSB (11747773_x_at) / Fold change /veh SPTSSB (11747773_x_at) / RFU PRSS12 (11739890_at) / Fold change /veh PRSS12 (11739890_at) / RFU BIN1 (11741810_x_at) / Fold change /veh BIN1 (11741810_x_at) / RFU WNT11 (11732464_a_at) / Fold change /veh WNT11 (11732464_a_at) / RFU C10orf10 (11716521_a_at) / Fold change /veh C10orf10 (11716521_a_at) / RFU C5orf56 (11738089_at) / Fold change /veh C5orf56 (11738089_at) / RFU CYB561 (11721691_x_at) / Fold change /veh CYB561 (11721691_x_at) / RFU ANKRD19P (11752326_a_at) / Fold change /veh ANKRD19P (11752326_a_at) / RFU OR2T12 /// OR2T33 /// OR2T8 (11738714_s_at) / Fold change /veh OR2T12 /// OR2T33 /// OR2T8 (11738714_s_at) / RFU VCAN (11748164_a_at) / Fold change /veh VCAN (11748164_a_at) / RFU JSRP1 (11732532_at) / Fold change /veh JSRP1 (11732532_at) / RFU KRTAP10-11 (11738290_x_at) / Fold change /veh KRTAP10-11 (11738290_x_at) / RFU MYO3A (11730013_a_at) / Fold change /veh MYO3A (11730013_a_at) / RFU EBF3 (11725865_a_at) / Fold change /veh EBF3 (11725865_a_at) / RFU CAMK2N1 (11719241_x_at) / Fold change /veh CAMK2N1 (11719241_x_at) / RFU C5orf56 (11738088_a_at) / Fold change /veh C5orf56 (11738088_a_at) / RFU OLFML3 (11715873_a_at) / Fold change /veh OLFML3 (11715873_a_at) / RFU LOC100653217 /// NTM (11731650_a_at) / Fold change /veh LOC100653217 /// NTM (11731650_a_at) / RFU MAPK11 (11762145_a_at) / Fold change /veh MAPK11 (11762145_a_at) / RFU FIZ1 (11724087_x_at) / Fold change /veh FIZ1 (11724087_x_at) / RFU OASL (11726364_x_at) / Fold change /veh OASL (11726364_x_at) / RFU SOX15 (11748057_x_at) / Fold change /veh SOX15 (11748057_x_at) / RFU CD79A (11719716_a_at) / Fold change /veh CD79A (11719716_a_at) / RFU HIST1H1D (11736915_at) / Fold change /veh HIST1H1D (11736915_at) / RFU CASKIN2 (11723855_a_at) / Fold change /veh CASKIN2 (11723855_a_at) / RFU LOC730098 (11760151_x_at) / Fold change /veh LOC730098 (11760151_x_at) / RFU OR4N2 (11742367_at) / Fold change /veh OR4N2 (11742367_at) / RFU PRRT2 (11749266_a_at) / Fold change /veh PRRT2 (11749266_a_at) / RFU SNX32 (11753110_a_at) / Fold change /veh SNX32 (11753110_a_at) / RFU CDHR5 (11726645_a_at) / Fold change /veh CDHR5 (11726645_a_at) / RFU RCAN1 (11760418_a_at) / Fold change /veh RCAN1 (11760418_a_at) / RFU FAM167A (11723789_a_at) / Fold change /veh FAM167A (11723789_a_at) / RFU FAM26E (11764081_at) / Fold change /veh FAM26E (11764081_at) / RFU ISYNA1 (11749810_s_at) / Fold change /veh ISYNA1 (11749810_s_at) / RFU ACY1 (11761880_at) / Fold change /veh ACY1 (11761880_at) / RFU 11764098_at / Fold change /veh 11764098_at / RFU SAMD14 (11745864_x_at) / Fold change /veh SAMD14 (11745864_x_at) / RFU NPB (11741838_a_at) / Fold change /veh NPB (11741838_a_at) / RFU TMPRSS6 (11731388_a_at) / Fold change /veh TMPRSS6 (11731388_a_at) / RFU KRTAP10-2 (11738614_at) / Fold change /veh KRTAP10-2 (11738614_at) / RFU ARHGAP8 /// PRR5-ARHGAP8 (11727945_x_at) / Fold change /veh ARHGAP8 /// PRR5-ARHGAP8 (11727945_x_at) / RFU KRTAP5-7 /// NADSYN1 (11734609_at) / Fold change /veh KRTAP5-7 /// NADSYN1 (11734609_at) / RFU RASL12 (11751679_a_at) / Fold change /veh RASL12 (11751679_a_at) / RFU CDKN2B (11736163_a_at) / Fold change /veh CDKN2B (11736163_a_at) / RFU PRF1 (11729649_at) / Fold change /veh PRF1 (11729649_at) / RFU, ZNF638 /// ZNF638-IT1 / Fold change vs veh, ZNF638 /// ZNF638-IT1 / RFU, PANK3 / Fold change vs veh, PANK3 / RFU, SH3YL1 / Fold change vs veh, SH3YL1 / RFU, ZEB2 / Fold change vs veh, ZEB2 / RFU, NRIP1 / Fold change vs veh, NRIP1 / RFU, PTTG1IP / Fold change vs veh, PTTG1IP / RFU, CAPN2 / Fold change vs veh, CAPN2 / RFU, MED14 / Fold change vs veh, MED14 / RFU, SNORA58 / Fold change vs veh, SNORA58 / RFU, C1orf63 / Fold change vs veh, C1orf63 / RFU, LRRFIP1 / Fold change vs veh, LRRFIP1 / RFU, NDUFAF7 / Fold change vs veh, NDUFAF7 / RFU, SLC12A2 / Fold change vs veh, SLC12A2 / RFU, IBTK / Fold change vs veh, IBTK / RFU, ESF1 / Fold change vs veh, ESF1 / Fold change vs veh, TMEM50B / RFU, TAOK1 / Fold change vs veh, TAOK1 / RFU, ACBD3 / Fold change vs veh, ACBD3 / RFU, TMA16 / Fold change vs veh, TMA16 / RFU, RWDD3 / Fold change vs veh, RWDD3 / RFU, BCAT1 / Fold change vs veh, BCAT1 / RFU, EDEM3 / Fold change vs veh, EDEM3 / RFU, TMEM33 / Fold change vs veh, TMEM33 / RFU, WDR75 / Fold change vs veh, WDR75 / RFU, AHCTF1 / Fold change vs veh, AHCTF1 / RFU, TFRC / Fold change vs veh, TFRC / RFU, ZDHHC17 / Fold change vs veh, ZDHHC17 / RFU, NOM1 / Fold change vs veh, NOM1 / RFU, ARL8B / Fold change vs veh, ARL8B / RFU, ZBTB11 / Fold change vs veh, ZBTB11 / RFU, TAMM41 / Fold change vs veh, TAMM41 / RFU, KIAA1704 /// LOC100996395 / Fold change vs veh, KIAA1704 /// LOC100996395 / RFU, ING1 / Fold change vs veh, ING1 / RFU, TRMT61B / Fold change vs veh, TRMT61B / RFU, FUBP3 / Fold change vs veh, FUBP3 / RFU, TP53 / Fold change vs veh, TP53 / RFU, TNKS2 / Fold change vs veh, TNKS2 / RFU, ZFP14 / Fold change vs veh, ZFP14 / RFU, ACTR2 / Fold change vs veh, ACTR2 / RFU, PPP3R1 / Fold change vs veh, PPP3R1 / RFU, PIK3R1 / Fold change vs veh, PIK3R1 / RFU, HNRNPA1 / Fold change vs veh, HNRNPA1 / RFU, RNF170 / Fold change vs veh, RNF170 / RFU, ZNF28 / Fold change vs veh, ZNF28 / RFU, RNGTT / Fold change vs veh, RNGTT / RFU, OGT / Fold change vs veh, OGT / RFU, BRD1 / Fold change vs veh, BRD1 / RFU, MARS / Fold change vs veh, MARS / RFU, ZNF655 / Fold change vs veh, ZNF655 / RFU, FAHD1 / Fold change vs veh, FAHD1 / RFU, BDP1 / Fold change vs veh, BDP1 / RFU, LRRCC1 / Fold change vs veh, LRRCC1 / RFU, ARID1A / Fold change vs veh, ARID1A / RFU, ZNF146 / Fold change vs veh, ZNF146 / RFU, ZNF330 / Fold change vs veh, ZNF330 / RFU, GPN3 / Fold change vs veh, GPN3 / RFU, C9orf123 / Fold change vs veh, C9orf123 / RFU, N4BP2L2 / Fold change vs veh, N4BP2L2 / RFU, ARFIP1 / Fold change vs veh, ARFIP1 / RFU, FAM179B / Fold change vs veh, FAM179B / RFU, BCL10 / Fold change vs veh, BCL10 / RFU, UHRF1BP1L / Fold change vs veh, UHRF1BP1L / RFU, BET1 / Fold change vs veh, BET1 / RFU, CNOT2 / Fold change vs veh, CNOT2 / RFU, ZNF268 / Fold change vs veh, ZNF268 / Fold change vs veh, ZNF507 / RFU, DGCR2 / Fold change vs veh, DGCR2 / RFU, WDSUB1 / Fold change vs veh, WDSUB1 / Fold change vs veh, HSP90B1 /// MIR3652 / RFU, ADSS / Fold change vs veh, ADSS / RFU, GK / Fold change vs veh, GK / RFU, ZNF148 / Fold change vs veh, ZNF148 / RFU, TAF9 / Fold change vs veh, TAF9 / RFU, SLC1A5 / Fold change vs veh, SLC1A5 / RFU, SLMO2 / Fold change vs veh, SLMO2 / RFU, ABCC4 / Fold change vs veh, ABCC4 / RFU, LOC101060439 /// RAP1B / Fold change vs veh, LOC101060439 /// RAP1B / RFU, RFX7 / Fold change vs veh, RFX7 / RFU, GTPBP10 / Fold change vs veh, GTPBP10 / RFU, CNEP1R1 / Fold change vs veh, CNEP1R1 / RFU, BIVM-ERCC5 /// ERCC5 / Fold change vs veh, BIVM-ERCC5 /// ERCC5 / RFU, ILF3 / Fold change vs veh, ILF3 / RFU 11762660_at / Fold change /veh 11762660_at / RFU VCAN (11757783_s_at) / Fold change /veh VCAN (11757783_s_at) / RFU DDX43 (11728927_at) / Fold change /veh DDX43 (11728927_at) / RFU KRT8 (11758188_x_at) / Fold change /veh KRT8 (11758188_x_at) / RFU NKD1 (11759106_at) / Fold change /veh NKD1 (11759106_at) / RFU SRD5A1 (11742802_a_at) / Fold change /veh SRD5A1 (11742802_a_at) / RFU TPSAB1 /// TPSB2 (11721975_s_at) / Fold change /veh TPSAB1 /// TPSB2 (11721975_s_at) / RFU GSTM3 (11746129_a_at) / Fold change /veh GSTM3 (11746129_a_at) / RFU IL23R (11737362_x_at) / Fold change /veh IL23R (11737362_x_at) / RFU TMEM51 (11727254_a_at) / Fold change /veh TMEM51 (11727254_a_at) / RFU PIWIL2 (11732686_x_at) / Fold change /veh PIWIL2 (11732686_x_at) / RFU ORM1 (11744905_x_at) / Fold change /veh ORM1 (11744905_x_at) / RFU CCDC152 (11743942_at) / Fold change /veh CCDC152 (11743942_at) / RFU ECM1 (11717891_a_at) / Fold change /veh ECM1 (11717891_a_at) / RFU IL23R (11748794_a_at) / Fold change /veh IL23R (11748794_a_at) / RFU TNFAIP8L3 (11732012_x_at) / Fold change /veh TNFAIP8L3 (11732012_x_at) / RFU MBOAT4 (11741988_at) / Fold change /veh MBOAT4 (11741988_at) / RFU 11764193_at / Fold change /veh 11764193_at / RFU TMEM53 (11763286_at) / Fold change /veh TMEM53 (11763286_at) / RFU MAGEB2 (11727129_at) / Fold change /veh MAGEB2 (11727129_at) / RFU TMEM200A (11744735_a_at) / Fold change /veh TMEM200A (11744735_a_at) / RFU CCDC152 (11751479_a_at) / Fold change /veh CCDC152 (11751479_a_at) / RFU FAM211A (11726209_a_at) / Fold change /veh FAM211A (11726209_a_at) / RFU RGS16 (11746705_a_at) / Fold change /veh RGS16 (11746705_a_at) / RFU VCAN (11755009_s_at) / Fold change /veh VCAN (11755009_s_at) / RFU RHOB (11743442_s_at) / Fold change /veh RHOB (11743442_s_at) / RFU RGS16 (11720943_a_at) / Fold change /veh RGS16 (11720943_a_at) / RFU RGS16 (11720944_at) / Fold change /veh RGS16 (11720944_at) / RFU, VPS4B / Fold change vs veh, VPS4B / RFU, CREB1 / Fold change vs veh, CREB1 / RFU, DNAJC13 / Fold change vs veh, DNAJC13 / RFU, GNAQ / Fold change vs veh, GNAQ / RFU, CDK5R1 / Fold change vs veh, CDK5R1 / RFU, ZRANB3 / Fold change vs veh, ZRANB3 / RFU, CUL4A / Fold change vs veh, CUL4A / RFU, CCNY / Fold change vs veh, CCNY / RFU, UFL1 / Fold change vs veh, UFL1 / RFU, COG3 / Fold change vs veh, COG3 / RFU, DIAPH2 / Fold change vs veh, DIAPH2 / RFU, SKA2 / Fold change vs veh, SKA2 / RFU, AFF3 / Fold change vs veh, AFF3 / RFU, LMF1 / Fold change vs veh, LMF1 / RFU, IPO11 / Fold change vs veh, IPO11 / RFU, DFFB / Fold change vs veh, DFFB / RFU, FOXP1 / Fold change vs veh, FOXP1 / RFU, CARD8 / Fold change vs veh, CARD8 / RFU, STRN3 / Fold change vs veh, STRN3 / RFU, ADK / Fold change vs veh, ADK / RFU, RASSF2 / Fold change vs veh, RASSF2 / RFU, WIPF1 / Fold change vs veh, WIPF1 / RFU, LARP1B / Fold change vs veh, LARP1B / RFU, RASA1 / Fold change vs veh, RASA1 / RFU, RB1 / Fold change vs veh, RB1 / RFU, PPFIA1 / Fold change vs veh, PPFIA1 / RFU, MAT2A / Fold change vs veh, MAT2A / RFU, CCT5 / Fold change vs veh, CCT5 / RFU, WDR92 / Fold change vs veh, WDR92 / RFU, CUX1 / Fold change vs veh, CUX1 / RFU, TTC7A / Fold change vs veh, TTC7A / RFU, TMEM135 / Fold change vs veh, TMEM135 / RFU, DEPTOR / Fold change vs veh, DEPTOR / RFU, CPM / Fold change vs veh, CPM / RFU, DNAJB6 / Fold change vs veh, DNAJB6 / RFU, CACNA2D3 / Fold change vs veh, CACNA2D3 / RFU, DTX4 / Fold change vs veh, DTX4 / RFU, TFCP2 / Fold change vs veh, TFCP2 / RFU, GMCL1 /// GMCL1P1 / Fold change vs veh, GMCL1 /// GMCL1P1 / RFU, AEBP2 / Fold change vs veh, AEBP2 / RFU, SNHG1 /// SNORD22 /// SNORD25 /// SNORD26 /// SNORD27 /// SNORD28 /// SNORD29 /// SNORD31 / Fold change vs veh, SNHG1 /// SNORD22 /// SNORD25 /// SNORD26 /// SNORD27 /// SNORD28 /// SNORD29 /// SNORD31 / Fold change (Aza/veh), C12orf56 (ProbeSet 11735607_a_at) / Fold change (ACY-1035/veh), C12orf56 (ProbeSet 11735607_a_at) / Fold change (Aza/veh), FGFR1OP (ProbeSet 11751329_s_at) / Fold change (ACY-1035/veh), FGFR1OP (ProbeSet 11751329_s_at) / Fold change (Aza/veh), VPS36 (ProbeSet 11739960_a_at) / Fold change (ACY-1035/veh), VPS36 (ProbeSet 11739960_a_at) / RFU SYPL1 (11715823_x_at) / Fold change /veh SYPL1 (11715823_x_at) / RFU IGFBP7 (11715501_s_at) / Fold change /veh IGFBP7 (11715501_s_at) / RFU REEP3 (11722064_at) / Fold change /veh REEP3 (11722064_at) / RFU IGLL1 (11728026_x_at) / Fold change /veh IGLL1 (11728026_x_at): dose or concentration left out as unconfirmed
Details: ProbeSet 11757113_a_at; LIST D

Nc1ccc(-c2cccs2)cc1NC(=O)c1ccc2c(c1)cc(C1CC1)n2CCN1CCOCC1 [ACY-1035]
Fold change vs veh, SNHG1 /// SNORD22 /// SNORD25 /// SNORD26 /// SNORD27 /// SNORD28 /// SNORD29 /// SNORD31: 0.87
